Assay results: patent publication US12427146B2, “C-terminal SRC kinase inhibitors” (INVENTISBIO CO., LTD., priority 2018, dated 2025)
pIC50: −log10 of the molar value.

Key:
CSK protein = CSK protein (Homo sapiens (Human), UniProt P41240); assay: CSK Inhibition Assay; assay type: biochemical
Method: Test compound was dissolved in DMSO at 10 mM. 45 uL of compound was transferred into a 384-well compound source plate (LABCYTE cat #P-05525) and serially diluted at 1:3 ratio to create a 11-point dilutions. The same volume of DMSO was adopted as high control. 20 nL of these compounds DMSO dilutes were dispensed into a new 384-well assay plate by Echo 550. […] 15 uL of kinase assay buffer containing CSK protein and substrate was transferred to assay plate and incubated at RT for 30 minutes. Kinase assay buffer supplemented with substrate peptides was employed as low control to monitor the background. 4 μM of ATP was prepared in kinase assay buffer and 5 μL of ATP solution was added to each well to start the reaction. The assay plate was incubated at 25° C. for 90 minutes and the reaction was stopped by adding 40 μL of 0.5 M EDTA.
(§1) Phosphorylated fluorescent-tagged peptides were differentiated from non-phosphorylated peptides by separating using Caliper EZ Reader II and the detection was directly converted to conversion ratio.
(§2) For estimation of IC50, the % substrate conversion values are transformed to % Inhibition Ratio by applying the following equation: […]

LCK protein = LCK protein (Homo sapiens (Human), UniProt P06239); assay: LCK Inhibition Assay; assay type: biochemical
Method: Test compound was dissolved in DMSO at 10 mM. 45 uL of compound was transfer into a 384-well compound source plate (LABCYTE cat #P-05525) and serially diluted at 1:3 ratio to create a 11-point dilutions. The same volume of DMSO was adopted as high control. 20 nL of these compounds DMSO dilutes were dispensed into a new 384-well assay plate by Echo 550. LCK protein (0.50 nM, Cama Biosciences, cat #08-170), florescent labeled substrate FLPeptide4 (2 μM, PerkinElmer, cat #760348) was prepared in kinase assay buffer (50 mM HEPES (pH 7.5), 10 mM MgCl2, 0.01% Brij-35, 2 mM DTT and 0.005 mg/ml BSA). 15 uL of kinase assay buffer containing LCK protein and substrate was transferred to assay plate and incubate at RT for 30 minutes. Kinase assay buffer supplemented with substrate peptides was employed as low control to monitor the background. 400 μM ATP was prepared in kinase assay buffer and 5 μL of ATP solution was added to each well to start the reaction. The assay plate was incubated at 25° C. for 90 minutes and the reaction was stopped by adding 40 μL of 0.5 M EDTA.
as §1, §2

Chain of LCK protein (P06239 whole entry): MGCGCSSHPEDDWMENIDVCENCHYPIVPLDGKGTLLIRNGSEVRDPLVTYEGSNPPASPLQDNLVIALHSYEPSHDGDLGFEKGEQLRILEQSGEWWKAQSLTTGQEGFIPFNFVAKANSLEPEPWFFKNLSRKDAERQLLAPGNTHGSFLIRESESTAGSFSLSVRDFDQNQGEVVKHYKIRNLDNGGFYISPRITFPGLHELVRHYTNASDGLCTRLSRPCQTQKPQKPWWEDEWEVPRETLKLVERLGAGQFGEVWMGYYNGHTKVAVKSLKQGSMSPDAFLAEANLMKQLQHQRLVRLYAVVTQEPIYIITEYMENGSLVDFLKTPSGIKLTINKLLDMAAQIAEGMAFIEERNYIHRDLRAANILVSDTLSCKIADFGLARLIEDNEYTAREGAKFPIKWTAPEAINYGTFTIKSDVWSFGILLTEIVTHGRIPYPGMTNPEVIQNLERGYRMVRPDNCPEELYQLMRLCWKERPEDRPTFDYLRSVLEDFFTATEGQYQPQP
Chain of CSK protein (P41240 whole entry): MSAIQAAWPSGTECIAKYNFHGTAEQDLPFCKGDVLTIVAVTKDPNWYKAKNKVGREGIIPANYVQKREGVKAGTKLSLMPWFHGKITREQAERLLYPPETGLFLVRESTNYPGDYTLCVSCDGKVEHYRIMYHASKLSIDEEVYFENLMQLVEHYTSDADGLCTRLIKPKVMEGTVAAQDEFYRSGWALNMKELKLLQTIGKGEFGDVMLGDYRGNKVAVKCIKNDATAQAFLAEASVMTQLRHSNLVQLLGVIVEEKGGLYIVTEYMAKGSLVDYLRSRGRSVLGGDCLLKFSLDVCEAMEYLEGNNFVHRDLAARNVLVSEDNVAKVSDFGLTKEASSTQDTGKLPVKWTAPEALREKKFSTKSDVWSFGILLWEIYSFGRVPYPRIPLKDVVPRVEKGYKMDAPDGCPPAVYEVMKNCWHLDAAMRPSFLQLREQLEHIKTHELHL

SMILES | pIC50 (CSK protein) | pIC50 (LCK protein)
CNc1nccc(-c2sc(N3CCCCC3)nc2-c2cccc(NS(=O)(=O)c3c(F)cccc3F)c2F)n1 [Compound 115] | 8.15 | < 6.00
CNc1nccc(-c2sc(N3CCOCC3)nc2-c2cccc(NS(=O)(=O)c3c(F)cccc3F)c2F)n1 [Compound 116] | 7.87 | 6.00 to 7.00
CNc1nccc(-c2sc(C(C)(C)C)nc2-c2cccc(NS(=O)(=O)c3c(F)cccc3F)c2F)n1 [Compound 117] | 7.09 | < 6.00
CN1CCN(c2ccc(Nc3nccc(-c4sc(C(C)(C)C)nc4-c4cccc(NS(=O)(=O)c5c(F)cccc5F)c4F)n3)cn2)CC1 [Compound 119] | 8.43 | > 7.00
CC(C)c1nc(-c2cccc(NS(=O)(=O)c3c(F)cccc3F)c2F)c(-c2ccnc(Nc3ccccc3)n2)s1 [Compound 120] | 7.69 | > 7.00
O=S(=O)(Nc1cccc(-c2nc(C3CCCCC3)sc2-c2ccnc(Nc3ccc(N4CCOCC4)nc3)n2)c1F)c1c(F)cccc1F [Compound 121] | 7.81 | > 7.00
Nc1nccc(-c2sc(C3CCNCC3)nc2-c2cccc(NS(=O)(=O)c3c(F)cccc3F)c2F)n1 [Compound 122] | 6.20 | 6.00 to 7.00
CNc1nccc(-c2sc(-c3ccc(F)cn3)nc2-c2cccc(NS(=O)(=O)c3c(Cl)cccc3Cl)c2F)n1 [Compound 123] | 7.63 | < 6.00
CNc1nccc(-c2sc(N3CCCC3=O)nc2-c2cccc(NS(=O)(=O)c3c(F)ccc(C)c3F)c2F)n1 [Compound 124] | 7.83 | < 6.00
Cc1ccc(Cl)c(S(=O)(=O)Nc2cccc(-c3nc(-c4ccc(F)cn4)sc3-c3ccnc(N)n3)c2F)c1Cl [Compound 125] | 7.82 | < 6.00
CNc1nccc(-c2sc(-c3ccc(F)cn3)nc2-c2cccc(NS(=O)(=O)c3c(Cl)ccc(C)c3Cl)c2F)n1 [Compound 126] | 7.52 | < 6.00
CNc1nccc(-c2sc(-c3cncc(F)c3)nc2-c2cccc(NS(=O)(=O)c3c(Cl)cccc3Cl)c2F)n1 [Compound 127] | 8.24 | < 6.00
CNc1nccc(-c2sc(N3CCCC3)nc2-c2cccc(NS(=O)(=O)c3c(F)cccc3F)c2F)n1 [Compound 128] | 7.92 | < 6.00
COc1ccn2c(-c3ccnc(NC4CC4)n3)c(-c3cccc(NS(=O)(=O)c4c(F)ccc(C)c4F)c3F)nc2c1 [Compound 129] | 8.13 | < 6.00
COc1ccn2c(-c3ccnc(NCCO)n3)c(-c3cccc(NS(=O)(=O)c4c(F)ccc(C)c4F)c3F)nc2c1 [Compound 130] | 6.67 | < 6.00
Cc1ccc(F)c(S(=O)(=O)Nc2cccc(-c3nc(-c4ccccc4)sc3-c3ccnc(NCCO)n3)c2F)c1F [Compound 131] | 7.88 | < 6.00
Nc1nccc(-c2sc(-c3ccc(F)cn3)nc2-c2cccc(NS(=O)(=O)c3c(Cl)cccc3Cl)c2F)n1 [Compound 132] | 7.21 | 6.00 to 7.00
O=S(=O)(Nc1cccc(-c2nc(-c3ccc(F)cn3)sc2-c2ccnc(NCCO)n2)c1F)c1c(Cl)cccc1Cl [Compound 133] | 7.75 | < 6.00
CNc1nccc(-c2sc(-c3ccc(F)cn3)nc2-c2cccc(NS(=O)(=O)c3c(F)cc(Cl)cc3F)c2F)n1 [Compound 134] | 6.73 | < 6.00
O=S(=O)(Nc1cccc(-c2nc(-c3ccc(F)cn3)sc2-c2ccnc(NC3CC3)n2)c1F)c1c(Cl)cccc1Cl [Compound 135] | 7.80 | < 6.00
Cc1ccc(Cl)c(S(=O)(=O)Nc2cccc(-c3nc(-c4ccc(F)cn4)sc3-c3ccnc(NCCO)n3)c2F)c1Cl [Compound 136] | 6.97 | < 6.00
Cc1ccc(Cl)c(S(=O)(=O)Nc2cccc(-c3nc(-c4ccc(F)cn4)sc3-c3ccnc(NC4CC4)n3)c2F)c1Cl [Compound 137] | 7.67 | < 6.00
Cc1ccc(Cl)c(S(=O)(=O)Nc2cccc(-c3nc(-c4cncc(F)c4)sc3-c3ccnc(NCCO)n3)c2F)c1Cl [Compound 138] | 8.07 | < 6.00
Cc1ccc(Cl)c(S(=O)(=O)Nc2cccc(-c3nc(-c4cncc(F)c4)sc3-c3ccnc(NC4CC4)n3)c2F)c1Cl [Compound 139] | 8.57 | < 6.00

SMILES | pIC50 (CSK protein) | pIC50 (LCK protein)
CNc1nccc(-c2sc(-c3cncc(F)c3)nc2-c2cc(Cl)cc(NS(=O)(=O)c3c(F)cccc3F)c2F)n1 [Compound 140] | 7.78 | < 6.00
Cc1ncc(-c2nc(-c3cccc(NS(=O)(=O)c4c(Cl)cccc4Cl)c3F)c(-c3ccnc(N)n3)s2)cn1 [Compound 141] | 8.17 | 6.00 to 7.00
Cc1ncc(-c2nc(-c3cccc(NS(=O)(=O)c4c(Cl)ccc(C)c4Cl)c3F)c(-c3ccnc(N)n3)s2)cn1 [Compound 142] | 7.98 | < 6.00
CNc1nccc(-c2sc(-c3cnc(C)nc3)nc2-c2cccc(NS(=O)(=O)c3c(Cl)ccc(C)c3Cl)c2F)n1 [Compound 143] | 8.44 | < 6.00
CNc1nccc(-c2sc(-c3cnc(C)cn3)nc2-c2cccc(NS(=O)(=O)c3c(F)ccc(C)c3F)c2F)n1 [Compound 144] | 7.62 | < 6.00
CNc1nccc(-c2c(-c3cccc(NS(=O)(=O)c4c(Cl)cccc4Cl)c3F)nc3cc(OC)ccn23)n1 [Compound 145] | 6.95 | < 6.00
CNc1nccc(-c2c(-c3cccc(NS(=O)(=O)c4c(Cl)ccc(C)c4Cl)c3F)nc3cc(OC)ccn23)n1 [Compound 146] | 7.38 | < 6.00
COc1ccn2c(-c3ccnc(NCCO)n3)c(-c3cccc(NS(=O)(=O)c4c(Cl)ccc(C)c4Cl)c3F)nc2c1 [Compound 147] | 7.52 | < 6.00
CNc1nccc(-c2sc(-c3cnc(C)nc3)nc2-c2cccc(NS(=O)(=O)c3c(Cl)cccc3Cl)c2F)n1 [Compound 148] | 8.16 | 6.00 to 7.00
Cc1ncc(-c2nc(-c3cccc(NS(=O)(=O)c4c(Cl)cccc4Cl)c3F)c(-c3ccnc(NC4CC4)n3)s2)cn1 [Compound 149] | 8.35 | < 6.00
Cc1ncc(-c2nc(-c3cccc(NS(=O)(=O)c4c(Cl)cccc4Cl)c3F)c(-c3ccnc(NCCO)n3)s2)cn1 [Compound 150] | 8.09 | < 6.00
Cc1ncc(-c2nc(-c3cccc(NS(=O)(=O)c4c(Cl)ccc(C)c4Cl)c3F)c(-c3ccnc(NC4CC4)n3)s2)cn1 [Compound 151] | 8.32 | < 6.00
Cc1ncc(-c2nc(-c3cccc(NS(=O)(=O)c4c(Cl)ccc(C)c4Cl)c3F)c(-c3ccnc(NCCO)n3)s2)cn1 [Compound 152] | 8.22 | < 6.00
Cc1ncc(-c2nc(-c3cccc(NS(=O)(=O)c4c(F)ccc(C)c4F)c3F)c(-c3ccnc(NCCO)n3)s2)cn1 [Compound 155] | 7.78 | < 6.00
Cc1ncc(-c2nc(-c3cccc(NS(=O)(=O)c4c(F)ccc(C)c4F)c3F)c(-c3ccnc(NC4CC4)n3)s2)cn1 [Compound 156] | 8.03 | < 6.00
CNc1nccc(-c2sc(N(C)C)nc2-c2cccc(NS(=O)(=O)c3c(F)cccc3F)c2F)n1 [Compound 157] | 7.59 | < 6.00
COc1ccn2c(-c3ccnc(NC4CC4)n3)c(-c3cccc(NS(=O)(=O)c4c(Cl)cccc4Cl)c3F)nc2c1 [Compound 158] | 6.77 | < 6.00
COc1ccn2c(-c3ccnc(NCCO)n3)c(-c3cccc(NS(=O)(=O)c4c(Cl)cccc4Cl)c3F)nc2c1 [Compound 159] | 7.55 | < 6.00
COc1ccn2c(-c3ccnc(NC4CC4)n3)c(-c3cccc(NS(=O)(=O)c4c(Cl)ccc(C)c4Cl)c3F)nc2c1 [Compound 160] | 6.95 | < 6.00
CNc1nccc(-c2sc(N3CCCCC3)nc2-c2cccc(NS(=O)(=O)c3c(F)ccc(C)c3F)c2F)n1 [Compound 161] | 8.00 | < 6.00
CNc1nccc(-c2sc(N3CCC(F)(F)C3)nc2-c2cccc(NS(=O)(=O)c3c(F)cccc3F)c2F)n1 [Compound 162] | 8.19 | 6.00 to 7.00
O=S(=O)(Nc1cccc(-c2nc(N3CCCCC3)sc2-c2ccnc(NC3CC3)n2)c1F)c1c(F)cccc1F [Compound 163] | 8.13 | 6.00 to 7.00
CNc1nccc(-c2sc(N3CCC(F)(F)CC3)nc2-c2cccc(NS(=O)(=O)c3c(F)cccc3F)c2F)n1 [Compound 164] | 7.60 | 6.00 to 7.00
CNc1nccc(-c2sc(NCC(F)(F)F)nc2-c2cccc(NS(=O)(=O)c3c(F)cccc3F)c2F)n1 [Compound 165] | 8.00 | 6.00 to 7.00
